Key:
[1] = system: CTG repeat in the 3′ UTR of human DMPK gene; experiment: Dual-cut screening: CTG repeat excision efficiency by loss-of-signal ddPCR; format: cell-based; conditions: sgRNA pair, primary DM1 patient myoblasts; for Excision efficiency (by ddPCR): 3 μM DNA-PKi Compound 6 for 48 hours; for Excision efficiency by ddPCR (Vehicle): vehicle (DMSO)
Protocol: (§1) RNPs were assembled with recombinant SluCas9 protein and chemically modified sgRNAs at a ratio of 1:3 (protein:sgRNA). For SINGLE-cut screening, RNP complexes were assembled with 30 pmol of SluCas9 and 90 pmol of sgRNA in P5 Primary Cell Nucleofector Solution (Lonza). After incubation at room temperature for 20 minutes, 10 μL of RNP complex were mixed with two hundred thousand of primary myoblasts resuspended in 10 μL of P5 Nucleofector Solution. For DOUBLE-cut screening, RNP complexes were first assembled for individual sgRNAs with 20 pmol of SluCas9 protein and 60 pmol of sgRNAs in 5 μL of P5 Nucleofector Solution. After incubation at room temperature for 20 minutes, the two RNP complexes (one for upstream sgRNA and one for downstream sgRNA) were mixed at 1:1 ratio and then further mixed with two hundred thousand of primary myoblasts resuspended in 10 μL of P5 Nucleofector Solution.
(§2) The Nucleofector 96-well Shuttle System (Lonza) was used to deliver the SluCa9/sgRNA RNPs into primary DM1 patient myoblasts using the nucleofection program CM138. Following nucleofection, myoblasts from each well of nucleofection shuttle were split into six wells of the 96-well cell culture plate (Greiner, 655090) coated with matrigel. The first three wells were treated with DMSO for 48 hrs before changing to fresh myoblast growth medium, and the other three wells were treated with 3 μM of DNA-PKi Compound 6 for 48 hrs before changing to fresh myoblast growth medium. 72 hrs post nucleofection, two wells of DMSO-treated myoblasts and two wells of DNA-PKi-treated myoblasts from each nucleofection were harvested for genomic DNA extraction using the Kingfisher Flex purification system (Thermal Fisher), whereas one well of DMSO-treated myoblasts and one well of DNA-PKi-treated myoblasts were stained for RNA foci by FISH staining.
The primers and probes of ddPCR are designed using the online primer design software Primer3Plus (http://www.bioinformatics.nl/cgi-bin/primer3plus/primer3plus.cgi). In some embodiments, two target primers/probe sets were used to detect CTG repeat excision, and a reference primers/probe set were used to amplify a region located in Exon 1 of human DMPK gene and to serve as a reference control for the target sets. The 24 μL of ddPCR reaction consists of 12 μL of Supermix for Probes (no dUTP) (Bio-Rad Laboratories), 1 μL of Reference primers mix (21.6 μM), 1 μL of Reference probe (6 μM), 1 μL of Target primers mix (21.6 μM), 1 μL of Target probe (6 μM), and 8 μL of sample genomic DNA. Droplets were generated using probe oil with the QX200 Droplet Generator (Bio-Rad Laboratories). Droplets were transferred to a 96-well PCR plate, sealed and cycled in a C1000 deep well Thermocycler (Bio-Rad Laboratories) under the following cycling protocol: 1 cycle at 95° C. for 10 min; 40 cycles of 94° C. for 30 see, and 58° C. for 1 min; 1 cycle at 98° C. for 10 min (for enzyme inactivation). The cycled plate was then transferred and read in the FAM and HEX channels using the Bio-Rad QX200 Droplet Reader (Bio-Rad Laboratories). ddPCR analysis is performed with the Bio-Rad QuantaSoft Pro Software.
(§3) To assess the efficiency of SluCas9 sgRNA pairs for inducing CTG repeat excision, Dual-cut screening was performed in which individual SluCas9 sgRNAs and recombinant SluCas9 protein were assembled into ribonucleoprotein (RNP) and delivered into primary DM1 patient myoblasts. Nucleofected myoblasts were treated with either DMSO (vehicle) or 3 μM of DNA-dependent Protein Kinase Inhibitor (DNA-PKi) Compound 6 for 48 hours. 72 hours post-nucleofection, myoblasts were subjected to either genomic DNA isolation or RNA foci staining by fluorescence in situ hybridization (FISH).
CRISPR repeat excision efficiency was assessed for each of the 88 pairs (FIG. 8A-B and Table 5). CTG repeat excision efficiency percentages are shown for vehicle (DMSO; white bars) and with DNA-PKi (black bars) (FIG. 8B and Table 5).

[2] = system: CUG foci in primary DM1 patient myoblasts; experiment: Dual-cut screening: FISH staining of CUG RNA foci; format: cell-based, human; conditions: sgRNA pair, primary DM1 patient myoblasts; for % of CUG foci free nuclei (DNA-PKi): 3 μM DNA-PKi Compound 6 for 48 hours; for % of CUG foci free nuclei (Vehicle): vehicle (DMSO)
Protocol: as §1, §2
Primary myoblasts were fixed for 15 min with 4% paraformaldehyde (PFA) and washed five times with 1×PBS for 10 min each at room temperature. Before staining, cells were permeabilized with 0.5% triton X-100 in 1×PBS for 5 min at room temperature, and then washed with 30% formamide and 2× saline-sodium citrate (SSC) mixture for 10 min at room temperature. Cells were then stained with 1 ng/μL of Cy3-PNA(CAG)5 probe (PNA Bio, F5001) diluted in 30% formamide, 2×SSC, 2 μg/mL BSA, 66 μg/mL yeast tRNA, and 2 mM vanadyl complex for 15 min at 80° C. Following probe staining, cells were then washed in 30% formamide and 2×SSC mixture for 30 min at 42° C., then washed in 30% formamide and 2×SSC mixture for 30 min at 37° C., and then washed in 1×SSC solution for 10 min at room temperature, and finally washed in 1×PBS for 10 min at room temperature. Cells were next stained with anti-MBNL1 antibody (Santa Cruz, 3A4) diluted in 1% bovine serum albumin (BSA) for overnight at 4° C., and washed twice with 1×PBS for 10 min each at room temperature. Cells were then incubated with the secondary antibody goat anti-rabbit Alexa 647 (Thermo Fisher, A32728) diluted in 1% BSA for 1 hr at room temperature, and washed twice with 1×PBS for 10 min each at room temperature. Next, cells were stained with Hoechst solution (Thermo Fisher, H3569) at 0.1 mg/ml for 5 min, and washed once with 1×PBS for 5 min. PBS was aspirated and fresh 100 μl of fresh PBS is added to each well. High-throughput acquisition of images was completed with the ImageXpress Micro Confocal High-Content Imaging System (Molecular Devices). RNA foci quantifications were accomplished with a customized analysis module of the MetaXpress program (Molecular Devices).
as §3, with “72 hours post-nucleofection, myoblasts were subjected to either genomic DNA isolation or RNA foci staining by fluorescence in situ hybridization (FISH).” left out

| Substance | Excision efficiency (by ddPCR) [1] | Excision efficiency by ddPCR (Vehicle) [1] | % of CUG foci free nuclei (DNA-PKi) [2] [%] | % of CUG foci free nuclei (Vehicle) [2] [%] |
| --- | --- | --- | --- | --- |
| SluU06 + SluD06 (guide 1 TGTCTTCGACTCCGGGGCCCCG; guide 2 CCAGGCTGAGGCCCTGACGTGG; guide RNA; listed as DNA, chemistry not fully specified) | 57.64 | 42.65 | 87.02 | 62.81 |
| SluU06 + SluD14 (guide 1 TGTCTTCGACTCCGGGGCCCCG; guide 2 ATGGGCAAACTGCAGGCCTGGG; guide RNA; listed as DNA, chemistry not fully specified) | 65.02 | 48.08 | 83.37 | 66.72 |
| SluU06 + SluD18 (guide 1 TGTCTTCGACTCCGGGGCCCCG; guide 2 TGGAGGATGGAACACGGACGGC; guide RNA; listed as DNA, chemistry not fully specified) | 64.53 | 45.61 | 87.79 | 69.25 |
| SluU06 + SluD32 (guide 1 TGTCTTCGACTCCGGGGCCCCG; guide 2 CTTGTGCATGACGCCCTGCTCT; guide RNA; listed as DNA, chemistry not fully specified) | 73.51 | 50.63 | 89.84 | 67.77 |
| SluU06 + SluD34 (guide 1 TGTCTTCGACTCCGGGGCCCCG; guide 2 CGCGCCAGACGCTCCCCAGAGC; guide RNA; listed as DNA, chemistry not fully specified) | 67.57 | 51.37 | 90.66 | 78.56 |
| SluU06 + SluD48 (guide 1 TGTCTTCGACTCCGGGGCCCCG; guide 2 GAGAGCAGCGCAAGTGAGGAGG; guide RNA; listed as DNA, chemistry not fully specified) | 63.33 | 45.89 | 89.46 | 66.88 |
| SluU06 + SluD56 (guide 1 TGTCTTCGACTCCGGGGCCCCG; guide 2 CCAGCCGGCTCCGCCCGCTTCG; guide RNA; listed as DNA, chemistry not fully specified) | 54.91 | 31.65 | 85.13 | 47.08 |
| SluU06 + SluD68 (guide 1 TGTCTTCGACTCCGGGGCCCCG; guide 2 CCTGTAGCCTGTCAGCGAGTCG; guide RNA; listed as DNA, chemistry not fully specified) | 62.99 | 47.38 | 89.4 | 64.01 |
| SluU06 + SluD73 (guide 1 TGTCTTCGACTCCGGGGCCCCG; guide 2 CCAAAACGTGGATTGGGGTTGT; guide RNA; listed as DNA, chemistry not fully specified) | 63.29 | 43.4 | 88.37 | 65.15 |
| SluU06 + SluD83 (guide 1 TGTCTTCGACTCCGGGGCCCCG; guide 2 GTGGGGACAGACAATAAATACC; guide RNA; listed as DNA, chemistry not fully specified) | 66.18 | 46.13 | 89.45 | 66.03 |
| SluU06 + SluD100 (guide 1 TGTCTTCGACTCCGGGGCCCCG; guide 2 GTCCAGAGCTTTGGGCAGATGG; guide RNA; listed as DNA, chemistry not fully specified) | 65.68 | 40.89 | 87.37 | 64.95 |
| SluU08 + SluD06 (guide 1 GCCCCGTTGGAAGACTGAGTGC; guide 2 CCAGGCTGAGGCCCTGACGTGG; guide RNA; listed as DNA, chemistry not fully specified) | 59.11 | 46.6 | 86.69 | 59.22 |
| SluU08 + SluD14 (guide 1 GCCCCGTTGGAAGACTGAGTGC; guide 2 ATGGGCAAACTGCAGGCCTGGG; guide RNA; listed as DNA, chemistry not fully specified) | 63.05 | 45.12 | 82.09 | 56.37 |
| SluU08 + SluD18 (guide 1 GCCCCGTTGGAAGACTGAGTGC; guide 2 TGGAGGATGGAACACGGACGGC; guide RNA; listed as DNA, chemistry not fully specified) | 63.55 | 50.56 | 90.44 | 67.06 |
| SluU08 + SluD32 (guide 1 GCCCCGTTGGAAGACTGAGTGC; guide 2 CTTGTGCATGACGCCCTGCTCT; guide RNA; listed as DNA, chemistry not fully specified) | 73.0215 | 50.87 | 90.91 | 74.1 |
| SluU08 + SluD34 (guide 1 GCCCCGTTGGAAGACTGAGTGC; guide 2 CGCGCCAGACGCTCCCCAGAGC; guide RNA; listed as DNA, chemistry not fully specified) | 69.47 | 58.11 | 91.15 | 77.93 |

— US20240173432A1, “Compositions and Methods for Treatment of Myotonic Dystrophy Type 1 with CRISPR/SluCas9” (Vertex Pharmaceuticals Incorporated, priority 2021, published 2024)
